{"source": "patent US11512085B2", "about": "“Heteroaryl compound having drug activity” (SHANGHAI DUDE MEDICAL TECHNOLOGY CO., LTD, priority 2017, dated 2022)", "key": {"[1]": {"biological_target": "Btk (Homo sapiens, UniProt Q06187)", "sequence (Q06187 whole entry)": "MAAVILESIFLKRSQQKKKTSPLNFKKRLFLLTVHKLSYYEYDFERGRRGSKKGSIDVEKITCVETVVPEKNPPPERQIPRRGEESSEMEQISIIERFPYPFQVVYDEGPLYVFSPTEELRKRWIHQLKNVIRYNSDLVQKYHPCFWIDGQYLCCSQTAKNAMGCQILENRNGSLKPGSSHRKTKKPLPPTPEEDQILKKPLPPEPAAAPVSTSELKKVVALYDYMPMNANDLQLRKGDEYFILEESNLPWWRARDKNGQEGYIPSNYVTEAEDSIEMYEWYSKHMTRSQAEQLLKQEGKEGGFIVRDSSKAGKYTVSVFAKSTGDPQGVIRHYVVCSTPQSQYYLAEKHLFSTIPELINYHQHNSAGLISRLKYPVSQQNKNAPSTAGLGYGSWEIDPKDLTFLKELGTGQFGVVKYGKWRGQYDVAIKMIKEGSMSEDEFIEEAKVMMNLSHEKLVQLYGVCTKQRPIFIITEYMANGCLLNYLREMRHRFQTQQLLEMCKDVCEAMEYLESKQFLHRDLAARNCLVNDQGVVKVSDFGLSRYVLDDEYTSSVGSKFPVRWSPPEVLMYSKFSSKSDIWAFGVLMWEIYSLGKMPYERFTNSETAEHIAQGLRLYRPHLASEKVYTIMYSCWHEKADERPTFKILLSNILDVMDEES", "experiment": "Determination of Btk enzyme inhibitory activity", "type": "biochemical", "conditions": "2 nM BTK", "experimental": "Determination of Btk Enzyme Inhibitory Activity\nBuffer solution: 50 mM Hepes pH 7.0, 0.1 mM Orthovanadate, 5 mM MgCl2, 0.01% of BSA;\n1 mM TK-peptide, […], 50 nM SEB;\nPre-incubation for 15 minutes;\nReaction at 23° C. for 90 minutes;\nColor Development Reaction:\nDeveloping buffer solution: 50 mM Hepes pH8.0, 0.8 M KF, 20 mM EDTA, 0.01% BSA;\nReaction at 23° C. for 60 minutes;"}, "[2]": {"experiment": "Human liver microsome stability test", "type": "in vitro ADME", "conditions": "for Remaining (*NCF = 60 min): HLM 0.5, 60 min, no co-factor; for Remaining (T = 60 min): HLM 0.5, 60 min with NADPH regenerating system; for half-life at 1 µM / microsomal CLint at 1 µM / CLint scaled at 1 µM: human, liver microsomes, pH 7.4; for half-life at 1 µM: HLM 0.5 (0.5 mg protein/mL); for microsomal CLint at 1 µM / CLint scaled at 1 µM: HLM 0.5; for microsomal CLint at 1 µM: read-out: CLint(mic); for CLint scaled at 1 µM: scaled from CLint(mic)", "experimental": "(§1) Preparation of Buffer Solution:\n(§2) 1. 100 mM potassium phosphate buffer solution, pH of 7.4\n(§3) Preparation of Test Compound Solution:\n(§4) 1. A test compound solution (10 mM, 5 μL) was diluted with a methanol solution (495 μL), and a 100 μM solution was prepared;\n(§5) 2. Preparation of a working solution: the above solution (50 μL) was diluted with the potassium phosphate buffer solution (450 μL, 100 mM) so as to obtain diluents (10 μM).\n(§6) NADPH Regeneration System (Final Concentration 1 Unit/mL of Isocitrate Dehydrogenase):\n(§7) 1. beta-NADP, supplier: sigma Cat. No. N0505\n(§8) 3. isocitrate dehydrogenase, supplier: sigma Cat. No. 12002\n(§9) Cold acetonitrile containing 100 ng/mL of tolbutamide and 100 ng/mL of labetalol serves as an internal standard\n(§10) 1. a 10 μL/well of working solution was added into plates (T0, T5, T10, T20, T30, T60, NCF60) beyond the blank;\n(§11) 2. a 80 μL/well of microsome solution was added, and incubation was performed at 37° C. for 10 min;\n(§12) 3. a 10 μL of 100 mM phosphate buffer solution was added into each well of an NCF60 plate, the plate was placed in a warm bath at 37° C., and timing started;\n(§13) 4. a 10 μL/well of NADPH regeneration system was added after preheating, and a reaction started;\n(§14) 5. incubation was performed at 37° C., and timing started\n(§15) 6. a 300 μL/well of stop solution was added (4° C., containing 100 ng/mL of tolbutamide and 100 ng/mL of labetalol) to end the reaction;\n(§16) 7. the plate was shaken for 10 min;\n(§17) 8. centrifugation was performed at 4° C. at a rotation speed of 4000 rpm; and\n(§18) 9. sample LC/MS/MS detection was performed.\n(§19) Data Analysis Use Equation of First Order Kinetics to Calculate t½ and Clint(Mic): […]\n(§20) equation of first order kinetics: […]"}, "[3]": {"biological_target": "LynA (Homo sapiens, UniProt P07948)", "sequence (P07948 whole entry)": "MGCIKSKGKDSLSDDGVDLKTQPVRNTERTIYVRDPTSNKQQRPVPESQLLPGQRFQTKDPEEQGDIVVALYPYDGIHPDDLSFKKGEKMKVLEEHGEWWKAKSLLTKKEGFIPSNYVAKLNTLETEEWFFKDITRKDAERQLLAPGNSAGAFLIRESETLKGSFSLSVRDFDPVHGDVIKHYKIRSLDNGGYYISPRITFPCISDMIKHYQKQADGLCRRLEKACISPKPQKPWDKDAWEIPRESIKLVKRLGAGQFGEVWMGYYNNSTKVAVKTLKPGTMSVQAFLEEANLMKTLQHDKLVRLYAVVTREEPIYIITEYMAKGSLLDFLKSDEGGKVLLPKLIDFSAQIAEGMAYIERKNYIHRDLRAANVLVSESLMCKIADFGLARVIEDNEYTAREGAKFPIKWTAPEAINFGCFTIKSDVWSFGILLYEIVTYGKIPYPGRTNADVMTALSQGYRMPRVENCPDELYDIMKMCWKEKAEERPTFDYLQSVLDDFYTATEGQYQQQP", "experiment": "Btk selectivity over LynA (same kinase method, Btk replaced)", "type": "biochemical", "conditions": "ratio of IC50 values", "experimental": "(§21) Other kinases (e.g., inhibitory activity of Lck and LynA is determined by replacing the Btk with various kinases and performing operations the same as that in the above method)."}, "[4]": {"biological_target": "Lck (Homo sapiens, UniProt P06239)", "sequence (P06239 whole entry)": "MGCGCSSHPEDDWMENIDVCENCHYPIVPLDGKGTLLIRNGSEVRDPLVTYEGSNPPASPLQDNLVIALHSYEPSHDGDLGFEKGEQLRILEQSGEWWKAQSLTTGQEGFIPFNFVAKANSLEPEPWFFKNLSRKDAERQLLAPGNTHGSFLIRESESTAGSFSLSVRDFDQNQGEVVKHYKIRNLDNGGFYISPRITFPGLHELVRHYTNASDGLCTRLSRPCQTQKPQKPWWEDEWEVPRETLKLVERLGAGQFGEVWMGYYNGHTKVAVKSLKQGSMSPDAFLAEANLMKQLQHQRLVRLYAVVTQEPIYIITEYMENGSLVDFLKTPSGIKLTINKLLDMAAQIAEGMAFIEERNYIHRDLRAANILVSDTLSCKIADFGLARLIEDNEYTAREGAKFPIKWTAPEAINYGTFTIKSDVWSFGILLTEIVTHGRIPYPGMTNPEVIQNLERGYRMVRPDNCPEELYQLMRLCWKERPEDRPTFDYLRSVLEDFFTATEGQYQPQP", "experiment": "Btk selectivity over Lck (same kinase method, Btk replaced)", "type": "biochemical", "conditions": "ratio of IC50 values", "experimental": "as §21"}, "[5]": {"experiment": "Rat liver microsome stability test", "type": "in vitro ADME", "conditions": "for Remaining (*NCF = 60 min): RLM 0.5, 60 min, no co-factor; for Remaining (T = 60 min): RLM 0.5, 60 min with NADPH regenerating system; for half-life at 1 µM / microsomal CLint at 1 µM / CLint scaled at 1 µM: rat, liver microsomes, pH 7.4; for half-life at 1 µM: RLM 0.5 (0.5 mg protein/mL); for microsomal CLint at 1 µM / CLint scaled at 1 µM: RLM 0.5; for microsomal CLint at 1 µM: read-out: CLint(mic); for CLint scaled at 1 µM: scaled from CLint(mic)", "experimental": "as §1, §2, §3, §4, §5, §6, §7, §8, §9, §10, §11, §12, §13, §14, §15, §16, §17, §18, §19, §20"}, "[6]": {"conditions": "People; FDA data; cited from earlier work"}}, "data": [{"smiles": "C=CC(=O)N1CCC[C@@H](n2nc(-c3ccc(-c4noc(CCCCl)n4)cc3)c3c(N)ncnc32)C1", "note": "[Embodiment 24, 1-(3-(4-amino-3-(4-(5-(3-chloropropyl)-1,2,4-oxadiazole-3-yl)phenyl)-1H-pyrazolo[3,4-D]pyrimidine-1-yl)-1-piperidyl)-2-propylene-1-one]", "values": [{"measurement": "IC50", "setting": "[1]", "value": 78, "unit": "nM"}]}, {"smiles": "C=CC(=O)N1CCC[C@@H](n2nc(/C=C/c3cccc(Cl)c3)c3c(N)ncnc32)C1", "note": "[Embodiment 15, 1-(3-(4-amino-3-(3-chlorophenylvinyl)-1H-pyrazolo[3,4-D]pyrimidine-1-yl)-piperidyl)-2-propylene-1-one]", "values": [{"measurement": "IC50", "setting": "[1]", "value": 6.9, "unit": "nM"}]}, {"smiles": "C=CC(=O)NN1CCCC(n2c(=O)n(-c3ccc(Oc4ccccc4)cc3)c3c(N)ncnc32)C1", "note": "(stereo not shown) [Embodiment 29]", "values": [{"measurement": "IC50", "setting": "[1]", "value": "> 1000", "unit": "nM"}]}, {"smiles": "C=CC(=O)N(C)N1CCC[C@@H](n2nc(-c3ccc(Oc4ccccc4)cc3)c3c(N)ncnc32)C1", "note": "[Embodiment 8]", "values": [{"measurement": "IC50", "setting": "[1]", "value": 0.64, "unit": "nM"}]}, {"smiles": "C=CC(=O)N1CCC[C@@H](n2nc(/C=C/c3ccc(Cl)cc3)c3c(N)ncnc32)C1", "note": "[Embodiment 14, 1-(3-(4-amino-3-(4-chlorophenylvinyl)-1H-pyrazolo[3,4-D]pyrimidine-1-yl)-piperidyl)-2-propylene-1-one]", "values": [{"measurement": "IC50", "setting": "[1]", "value": 5.82, "unit": "nM"}]}, {"smiles": "C=CC(=O)N(C)N1CCCC(n2nc(-c3ccc(Oc4ccccc4)cc3)c3c(N)ncnc32)C1", "note": "(stereo not shown) [Embodiment 8]", "values": [{"measurement": "Remaining (*NCF = 60 min)", "setting": "[2]", "value": 105.8, "unit": "%"}, {"measurement": "Remaining (T = 60 min)", "setting": "[2]", "value": 0.0, "unit": "%"}, {"measurement": "half-life at 1 µM", "setting": "[2]", "value": 3.7, "unit": "min"}, {"measurement": "microsomal CLint at 1 µM", "setting": "[2]", "value": 374, "unit": "µL/min/mg"}, {"measurement": "CLint scaled at 1 µM", "setting": "[2]", "value": 336, "unit": "mL/min/kg"}, {"measurement": "LynA[IC50]/Btk[IC50]", "setting": "[3]", "value": 62.5}, {"measurement": "Lck[IC50]/Btk[IC50]", "setting": "[4]", "value": 139}, {"measurement": "Remaining (*NCF = 60 min)", "setting": "[5]", "value": 111.2, "unit": "%"}, {"measurement": "Remaining (T = 60 min)", "setting": "[5]", "value": 0.2, "unit": "%"}, {"measurement": "half-life at 1 µM", "setting": "[5]", "value": 3.8, "unit": "min"}, {"measurement": "microsomal CLint at 1 µM", "setting": "[5]", "value": 366, "unit": "µL/min/mg"}, {"measurement": "CLint scaled at 1 µM", "setting": "[5]", "value": 658, "unit": "mL/min/kg"}]}, {"smiles": "C=CC(=O)N1CCCC(n2c(=O)n(-c3ccc(-c4noc(C)n4)cc3)c3c(N)ncnc32)C1", "note": "(stereo not shown) [Embodiment 34, 9-(1-allylpropionylpiperidine-3-yl)-6-amino-7-(4-(5-methyl-1,2,4-oxadiazole-3-yl)phenyl)-7,9-dihydro-8H-purine-8-one]", "values": [{"measurement": "IC50", "setting": "[1]", "value": 209, "unit": "nM"}]}, {"smiles": "C=CC(=O)N1CCCC(n2nc(/C=C/c3ccccn3)c3c(N)ncnc32)C1", "note": "(stereo not shown) [Embodiment 13, 1-(3-(4-amino-3-(2-2-pyridyl)vinyl-1H-pyrazolo[3,4-D]pyrimidine-1-yl)-piperidyl)-2-propylene-1-one]", "values": [{"measurement": "Remaining (*NCF = 60 min)", "setting": "[2]", "value": 93.1, "unit": "%"}, {"measurement": "Remaining (T = 60 min)", "setting": "[2]", "value": 14.0, "unit": "%"}, {"measurement": "half-life at 1 µM", "setting": "[2]", "value": 20.5, "unit": "min"}, {"measurement": "microsomal CLint at 1 µM", "setting": "[2]", "value": 67.6, "unit": "µL/min/mg"}, {"measurement": "CLint scaled at 1 µM", "setting": "[2]", "value": 60.8, "unit": "mL/min/kg"}, {"measurement": "IC50", "setting": "[1]", "value": 0.46, "unit": "nM"}, {"measurement": "LynA[IC50]/Btk[IC50]", "setting": "[3]", "value": 507}, {"measurement": "Lck[IC50]/Btk[IC50]", "setting": "[4]", "value": 420}, {"measurement": "Remaining (*NCF = 60 min)", "setting": "[5]", "value": 94.7, "unit": "%"}, {"measurement": "Remaining (T = 60 min)", "setting": "[5]", "value": 5.0, "unit": "%"}, {"measurement": "half-life at 1 µM", "setting": "[5]", "value": 13.7, "unit": "min"}, {"measurement": "microsomal CLint at 1 µM", "setting": "[5]", "value": 101, "unit": "µL/min/mg"}, {"measurement": "CLint scaled at 1 µM", "setting": "[5]", "value": 182, "unit": "mL/min/kg"}]}, {"smiles": "C=CC(=O)N1CCCC(n2nc(/C=C/c3ccccc3Cl)c3c(N)ncnc32)C1", "note": "(stereo not shown) [Embodiment 16, 1-(3-(4-amino-3-(2-chlorophenylvinyl)-1H-pyrazolo[3,4-D]pyrimidine-1-yl)-piperidyl)-2-propylene-1-one]", "values": [{"measurement": "IC50", "setting": "[1]", "value": 16.7, "unit": "nM"}]}, {"smiles": "C=CC(=O)NN1CCCC(c2nc(-c3ccc(Oc4ccccc4)cc3)c3c(N)nccn23)C1", "note": "(stereo not shown) [Embodiment 51, N-(3-(8-amino-1-(4-phenoxyphenyl)imidazo[1,5-a]pyrazine-3-yl)-1-piperidyl) acrylamide]", "values": [{"measurement": "IC50", "setting": "[1]", "value": 5.1, "unit": "nM"}]}, {"smiles": "C=CC(=O)NN1CCC[C@@H](n2nc(-c3ccc(Oc4ccccc4F)cc3)c3c(N)ncnc32)C1", "note": "[Embodiment 42]", "values": [{"measurement": "IC50", "setting": "[1]", "value": 0.9, "unit": "nM"}]}, {"smiles": "C=CC(=O)N1CCC[C@@H](n2nc(-c3ccc(Oc4ccccc4)cc3)c3c(N)ncnc32)C1", "note": "[Ibrutinib]", "values": [{"measurement": "bioavailability", "setting": "[6]", "value": 2.9, "unit": "%"}]}, {"smiles": "C=CC(=O)NN1CCC[C@@H](n2c(=O)n(-c3ccc(C(=O)Nc4ccccn4)cc3)c3c(N)ncnc32)C1", "note": "[Embodiment 40, 4-(9-(1-acrylamidepiperidine-3-yl)-6-amino-8-oxo-8,9-dihydro-7H-purine-7-yl)-N-(pyridin-2-yl)benzamide]", "values": [{"measurement": "IC50", "setting": "[1]", "value": 23, "unit": "nM"}]}, {"smiles": "C=CC(=O)N1CCC[C@@H](n2c(=O)n(-c3ccc(-c4noc(CCCCl)n4)cc3)c3c(N)ncnc32)C1", "note": "[Embodiment 36, 9-(1-allylpropionylpiperidine-3-yl)-6-amino-7-(4-(5-(3-chloropropyl)-1,2,4-oxadiazole-3-yl)phenyl)-7,9-dihydro-8H-purine-8-one]", "values": [{"measurement": "IC50", "setting": "[1]", "value": "> 1000", "unit": "nM"}]}, {"smiles": "C=CC(=O)N(C)N1CCC[C@@H](n2c(=O)n(-c3ccc(Oc4ccccc4)cc3)c3c(N)ncnc32)C1", "note": "[Embodiment 30]", "values": [{"measurement": "IC50", "setting": "[1]", "value": 76.8, "unit": "nM"}]}, {"smiles": "C=CC(=O)N1CCCC(n2c(=O)n(-c3ccc(-c4noc(C=C)n4)cc3)c3c(N)ncnc32)C1", "note": "(stereo not shown) [Embodiment 35, 9-(1-allylpropionylpiperidine-3-yl)-6-amino-7-(4-(5-vinyl-1,2,4-oxadiazole-3-yl)phenyl)-7,9-dihydro-8H-purine-8-one]", "values": [{"measurement": "IC50", "setting": "[1]", "value": 176, "unit": "nM"}]}, {"smiles": "C=CC(=O)N1CCC[C@@H](n2nc(-c3ccc(-c4noc(C)n4)cc3)c3c(N)ncnc32)C1", "note": "[Embodiment 22, 1-(3-(4-amino-3-(4-(5-methyl-1,2,4-oxadiazole-3-yl)phenyl)-1H-pyrazolo[3,4-D]pyrimidine-1-yl)-1-piperidyl)-2-propylene-1-one]", "values": [{"measurement": "IC50", "setting": "[1]", "value": 145, "unit": "nM"}]}]}
